Data reported in patent US20210032344A1, “METHODS OF TREATING TUMOR” (Bristol-Myers Squibb Company, priority 2018, published 2021).

Columns and labels:
[1] = test system: stage IV or recurrent NSCLC; assay: Phase 3 trial, part 1: first-line nivolumab-based regimens vs chemotherapy; efficacy (PFS, ORR, duration of response); format: in vivo, human
Source text: This trial is an open-label, multi-part phase 3 study of first-line nivolumab and nivolumab-based combinations in biomarker-selected NSCLC populations. […] The study continues for the co-primary endpoint of overall survival in PD-L1-selected patients.
Patients had chemotherapy-naive, stage IV or recurrent NSCLC.
Adult patients with PD-L1-histologically confirmed squamous or nonsquamous stage IV/recurrent NSCLC and Eastern Cooperative Oncology Group (ECOG) performance status (Oken M. M., et al. Am J Clin Oncol 5:649-55 (1982)) of 0 or 1 who had received no prior systemic anticancer therapy as primary therapy for advanced or metastatic disease were eligible for the study. All patients underwent imaging to screen for brain metastases. Patients with known EGFR mutations or ALK translocations sensitive to targeted therapy, an autoimmune disease, or untreated central nervous system metastases were excluded.
All treatments continued until disease progression, unacceptable toxicity, or completion per protocol (up to 2 years for immunotherapy). Crossover between treatment arms within the study was not permitted.
Part 1 of this study had two co-primary endpoints.

[2] = monotherapy, every two weeks; MTD not reached; cited from earlier work
[3] = test system: patients with stage IV or recurrent NSCLC; settings: in vivo
Source text: Overall response rates (ORR), duration of response, and safety were exploratory endpoints. Adverse events were graded according to the National Cancer Institute Common Terminology Criteria for Adverse Events, version 4.0.

nivolumab
median PFS ([1]; TMB ≥10 mutations/Mb and ≥1% PD-L1 expression): 4.2 months | median PFS ([1]; TMB ≥13 mutations/Mb and ≥1% PD-L1 expression): 4.2 months | PFS hazard ratio (HR), nivolumab vs. chemotherapy ([1]; in vivo): 0.95 | maximum tolerated dose (MTD) [2]: > 10 mg/kg | safety / tolerability (in words) [3]: well tolerated
